Laboratory results: the supplement of paper PMC10307832

Legend:
Assay in all cases: relative viability (nuclei count vs DMSO), 5 days (fraction); higher = more cells survive
[1] = compound: CCN1CCN(c2ccc(Nc3cc(N(C)C(=O)Nc4c(Cl)c(OC)cc(OC)c4Cl)ncn3)cc2)CC1 [BGJ398] + Cc1nc(Nc2ncc(C(=O)Nc3c(C)cccc3Cl)s2)cc(N2CCN(CCO)CC2)n1 [Dasatinib] (partner 0.075 µM)
Summary of the method: (§1)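 The day after seeding in 1536-well plates, lung cancer cell lines were treated by pin tool with a single drug, or with a fixed anchor-drug dose together with five library-drug doses (not always all listed) in √10 steps. After 5 days, a combined fix-and-stain solution (final 0.05% Triton X-100, 1% formaldehyde, 1 ug/ml Hoechst) was added. Nuclei counted on 4× images gave relative viability as treated counts over vehicle counts, reported as the median of duplicate plates.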

[2] = compound: C1=CC2=NC=CN=C2C=C1/C=C/3\C(=O)NC(=O)S3 + Nc1ncn([C@H]2C[C@H](O)[C@@H](CO)O2)c(=O)n1 [Decitabine] (partner 2 µM)
Summary of the method: as §1

[3] = compound: CCN1CCN(c2ccc(Nc3cc(N(C)C(=O)Nc4c(Cl)c(OC)cc(OC)c4Cl)ncn3)cc2)CC1 [BGJ398] + CCNC(=O)c1noc(-c2cc(C(C)C)c(O)cc2O)c1-c1ccc(CN2CCOCC2)cc1 [Luminespib] (partner 0.01 µM)
Summary of the method: as §1

[4] = compound: C1=CC2=NC=CN=C2C=C1/C=C/3\C(=O)NC(=O)S3 + CC(C)C[C@H](NC(=O)[C@H](Cc1ccccc1)NC(=O)c1cnccn1)B(O)O [Bortezomib] (partner 0.002 µM)
Summary of the method: as §1

Cell Line | relative viability ([1]; first compound 0.01 µM) | relative viability ([1]; first compound 0.03162 µM) | relative viability ([1]; first compound 0.1 µM) | relative viability ([1]; first compound 0.3162 µM) | relative viability ([1]; first compound 1 µM) | relative viability ([2]; first compound 0.02 µM) | relative viability ([2]; first compound 0.06325 µM) | relative viability ([2]; first compound 0.2 µM) | relative viability ([2]; first compound 0.6325 µM) | relative viability ([2]; first compound 2 µM) | relative viability ([3]; first compound 0.01 µM) | relative viability ([3]; first compound 0.03162 µM) | relative viability ([3]; first compound 0.1 µM) | relative viability ([3]; first compound 0.3162 µM) | relative viability ([3]; first compound 1 µM) | relative viability ([4]; first compound 0.02 µM) | relative viability ([4]; first compound 0.06325 µM) | relative viability ([4]; first compound 0.2 µM) | relative viability ([4]; first compound 0.6325 µM) | relative viability ([4]; first compound 2 µM)
HCC-15 | 0.648 | 0.645 | 0.631 | 0.639 | 0.576 | 0.625 | 0.686 | 0.717 | 0.561 | 0.553 | 0.316 | 0.258 | 0.294 | 0.37 | 0.397 | 1.01 | 0.995 | 1.04 | 0.99 | 0.966
HCC-827 | 0.223 | 0.123 | 0.329 | 0.249 | 0.325 | 0.259 | 0.343 | 0.345 | 0.392 | 0.33 | 0.432 |  | 0.405 | 0.268 | 0.736 | 0.981 | 0.912 | 1 | 1.05 | 0.973
HOP-62 | 0.745 | 0.656 | 0.678 | 0.733 | 0.57 | 0.188 | 0.278 | 0.215 | 0.191 | 0.254 | 0.89 | 0.919 | 1.03 | 0.868 | 0.897 | 0.908 | 0.819 | 1.07 | 0.757 | 0.707
LC-2-ad | 0.572 | 0.756 | 0.566 | 0.538 | 0.433 | 0.781 | 0.862 | 0.84 | 0.86 | 0.727 | 0.958 | 1.05 | 0.978 | 1.04 | 1.07 | 0.964 | 1.02 | 1.09 | 0.943 | 0.829
LCLC-97TM1 | 0.671 | 0.92 | 0.773 | 0.646 | 0.921 | 0.293 | 0.244 | 0.229 | 0.247 | 0.221 | 0.703 | 0.859 | 0.857 | 0.823 | 0.797 | 0.624 | 0.515 | 0.573 | 0.776 | 0.125
LCLC-103H | 0.471 | 0.446 | 0.447 | 0.487 | 0.381 | 0.71 | 0.798 | 0.707 | 0.747 | 0.709 | 0.982 | 0.961 | 1.07 | 0.931 | 0.708 | 1.08 | 1.05 | 1.06 | 1 | 0.931
LOU-NH91 | 0.522 |  | 0.59 | 0.459 | 0.522 | 0.797 | 0.849 | 0.83 | 0.782 | 0.756 | 0.34 |  | 0.327 | 0.312 | 0.301 | 0.415 | 0.517 | 0.512 | 0.562 | 0.513
LU99A | 0.569 | 0.487 | 0.518 | 0.321 | 0.409 | 0.932 | 0.828 | 0.884 | 0.751 | 0.725 | 0.205 | 0.248 | 0.225 | 0.243 | 0.254 | 1.09 | 1.32 | 1.41 | 1.07 | 0.747
